According to ChEMBL document CHEMBL1158172, “Preparation and antibacterial activity of cyclic 2',3'-carbamate derivatives of azithromycin” (Eur J Med Chem, 2008):
Calls of active or inactive are those of the source. No cut-off for these calls is given here.

Assays:
Staphylococcus aureus = assay: Antibacterial activity against Staphylococcus aureus ATCC 25923; format: functional, organism-based
Escherichia coli = assay: Antibacterial activity against Escherichia coli ATCC 25922; format: functional, organism-based

Row | Structure (SMILES) | Activity (Staphylococcus aureus) | Activity (Escherichia coli)
1 | CC[C@H]1OC(=O)[C@H](C)[C@@H](O[C@H]2C[C@@](C)(OC)[C@@H](O)[C@H](C)O2)[C@H](C)[C@@H](O[C@@H]2O[C@H](C)C[C@H]3[C@H]2OC(=O)N3C)[C@](C)(O)C[C@@H](C)CN(C)[C@H](C)[C@@H]2OC(=O)O[C@]12C | inactive | inactive
2 | CC[C@H]1OC(=O)[C@H](C)[C@@H](O[C@H]2C[C@@](C)(OC)[C@@H](O)[C@H](C)O2)[C@H](C)[C@@H](O[C@@H]2O[C@H](C)C[C@H]3[C@H]2OC(=O)N3C)[C@](C)(O)C[C@@H](C)CN[C@H](C)[C@@H]2OC(=O)O[C@]12C | inactive | inactive
